Test results from paper PMC4669708 (Cell Death & Disease, 2015).

Assays:
PLEKHF2 = molecular target: T1, PLEKHF2 (Homo sapiens, UniProt Q9H8W4); experiment: c-ponatinib pulldown LC-MS/MS; type: binding
T1 sequence (Q9H8W4 1-249): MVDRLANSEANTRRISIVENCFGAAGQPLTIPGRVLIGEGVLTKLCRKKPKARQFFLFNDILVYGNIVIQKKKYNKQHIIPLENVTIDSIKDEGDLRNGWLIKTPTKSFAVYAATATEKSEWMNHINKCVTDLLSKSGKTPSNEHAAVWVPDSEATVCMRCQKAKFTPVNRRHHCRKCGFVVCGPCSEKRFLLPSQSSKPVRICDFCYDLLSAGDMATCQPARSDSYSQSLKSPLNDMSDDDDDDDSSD
How it was run: (§1)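 Spectral counts and search-engine scores from LC-MS/MS of tryptic eluates gave drug-protein specificity P-values. Eluates came from duplicate pulldowns of 10 mg lysate on 25 nmol immobilized c-ponatinib. Competition was the ratio of median counts with versus without free compound.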

PAG1 = molecular target: T2, PAG1 (Homo sapiens, UniProt Q9NWQ8); experiment: c-ponatinib pulldown LC-MS/MS; type: binding
T2 sequence (Q9NWQ8 1-432): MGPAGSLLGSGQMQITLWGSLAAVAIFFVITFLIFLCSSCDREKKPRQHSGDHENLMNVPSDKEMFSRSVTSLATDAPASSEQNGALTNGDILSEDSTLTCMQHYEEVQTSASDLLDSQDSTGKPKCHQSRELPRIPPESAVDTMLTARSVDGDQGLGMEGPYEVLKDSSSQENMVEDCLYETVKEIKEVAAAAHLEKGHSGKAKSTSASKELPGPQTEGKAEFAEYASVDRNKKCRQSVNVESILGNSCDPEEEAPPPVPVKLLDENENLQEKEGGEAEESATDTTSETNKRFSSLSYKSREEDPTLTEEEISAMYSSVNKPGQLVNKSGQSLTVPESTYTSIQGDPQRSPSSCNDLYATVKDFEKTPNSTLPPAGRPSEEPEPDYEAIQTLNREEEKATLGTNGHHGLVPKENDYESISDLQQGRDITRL
How it was run: as §1

SMILES: Cc1ccc(C(=O)Nc2ccc(CN3CCN(CCCN)CC3)c(C(F)(F)F)c2)cc1C#Cc1cnc2cccnn12 [c-ponatinib]
- Av. SC comp. (PLEKHF2; + free ponatinib): 0
- Total SC comp. (PLEKHF2; + free ponatinib): 0
- Av. SC (PLEKHF2; no competitor): 8.25
- Total SC (PLEKHF2; no competitor): 33
- Av. SC comp. (PAG1; + free ponatinib): 0
- Total SC comp. (PAG1; + free ponatinib): 0
- Av. SC (PAG1; no competitor): 2
- Total SC (PAG1; no competitor): 8
